Results on one compound are retold here after patent US9554987B2, “Methods and formulations for treating sialic acid deficiencies” (ULTRAGENYX PHARMACEUTICAL INC., priority 2010, dated 2017).

Data set [1] deals with male beagle dogs. As to the kind of experiment: Clinical signs and body weight in the single dose dog study (Example 5). Format: in vivo, beagle dog (Canis familiaris). Particulars: study period. From the text: Before dosing initiation, all animals were weighed and assigned to treatment groups. At the start of treatment, animals were 7-16 months of age and ranged in weight as 6.4 to 9.4 kg. Animals were housed individually in stainless steel cages equipped with a mesh-type floor and an automatic watering valve. A standard certified pelleted commercial dog food (approximately 400 g of Certified Canine Diet 5C07, PMI Nutrition International, Inc.) was provided to each animal once daily, except during designated procedures. Maximum allowable concentrations of contaminants in the diet (e.g., heavy metals, aflatoxin, organophosphates, chlorinated hydrocarbons, PCBs) were controlled and routinely analyzed by the manufacturers. It was considered that there were no known contaminants in the food that could have interfered with the objectives of the study. Municipal tap water, which was softened, purified by reverse osmosis and exposed to ultraviolet light, was freely available except during designated procedures. It was considered that there were no known contaminants in the water that could have interfered with the objectives of the study. Each Animal was provided with a floor toy, except during designated activities.
Individual body weights were measured once during the predose period and prior to each dose on dosing days.

The test system of data set [2] is canine. As to the kind of experiment: Canine chronic toxicology study. The format is in vivo, dog. Particulars: very highest 2,000 mg/kg dose level.

As for `CC(=O)N[C@H]1[C@H]([C@H](O)[C@H](O)CO)OC(O)(C(=O)O)C[C@@H]1O` (stereo partly drawn) [sialic acid, 5-N-acetylneuraminic acid], the treatment-related clinical signs entry in data set [1] (oral or intravenous administration) is on record as “no treatment-related clinical signs”. The “body weight or body weight gains” value in data set [1] was “no treatment related changes in body weight or body weight gains”. The “finding in canine chronic toxicology study” value in data set [2] was “loosening of stools”.
